# From patent US20050159485A1, “Combinations for the treatment of immunoinflammatory disorders and proliferative skin diseases” (priority 2002, published 2005)
# Tests used:
# [1] = tested on: TNFα secretion from stimulated white blood cells; experiment: TNFα ELISA, white blood cells stimulated with phorbol 12-myristate 13-acetate and ionomycin; assay type: cell-based, human; parameters: inhibition of TNFα secretion: dose or concentration left out as unconfirmed; details: PMA/ionomycin
# Protocol: (§1) Stock solutions at 1.6 mg/ml of alprostadil, and 4.0 mg/ml of […] (Sigma-Aldrich, St. Louis, Mo.; catalog numbers P5515 and R-2625, respectively) were made in dimethylsulfoxide (DMSO). The alprostadil master plates were made by adding 25 μl of the concentrated stock solution to columns 3, 9, and 15 (rows C through N) of a polypropylene 384-well storage plate that had been pre-filled with 75 μl of anhydrous DMSO. Using a TomTec Quadra Plus liquid handler, the 25 μl of alprostadil stock solution was serially diluted four times into the adjacent columns (columns 4-7, 10-13, 16-19). […] The tretinoin master plates were made by adding 25 μl of the concentrated stock solution to the appropriate wells (row C, columns 3-8; row C, columns 9-14; row C, columns 15-20; row I, columns 3-8; row I, columns 9-14; row I, columns 15-20) of the appropriate master polypropylene 384-well storage plate. These master plates had been pre-filled with 75 μl of anhydrous DMSO. Using the TomTec Quadra Plus liquid handler, the 25 μl was serially diluted four times in the adjacent rows (rows D-G, and J-M). […] Master plates were sealed and stored at −20° C. until ready for use.
# The final alprostadil/tretinoin combination plates were generated by transferring 1 μl from each of the alprostadil and tretinoin master plates to a dilution plate containing 100 μl of media (RPMI; Gibco BRL, #11875-085), 10% Fetal Bovine Serum (Gibco BRL, #25140-097), 2% Penicillin/Streptomycin (Gibco BRL, #15140-122)) using the TomTec Quadra Plus liquid handler. This dilution plate was then mixed and a 10 μl aliquot transferred to the final assay plate, which had been pre-filled with 40 μl/well RPM media containing the appropriate stimulant to activate TNFα secretion (see below).
# (§2) The compound dilution matrix was assayed using a TNFα ELISA method. Briefly, a […] suspension of diluted human white blood cells contained within each well of a polystyrene 384-well plate (NalgeNunc) was stimulated to secrete TNFα by treatment with a final concentration of 10 ng/ml phorbol 12-myristate 13-acetate (Sigma) and 750 ng/ml ionomycin (Sigma). Various concentrations of each test compound were added at the time of stimulation. After 16-18 hours of incubation at 37° C. in a humidified incubator, the plate was centrifuged and the supernatant transferred to a white opaque polystyrene 384 well plate (NalgeNunc, Maxisorb) coated with an anti-TNFα antibody (PharMingen, #18631D). After a two-hour incubation, the plate was washed (Tecan PowerWasher 384) with phosphate buffered saline (PBS) containing 0.1% Tween 20 (polyoxyethylene sorbitan monolaurate) and incubated for an additional one hour with another anti-TNFα antibody that was biotin labeled (PharMingen, 18642D) and horseradish peroxidase (HRP) coupled to strepavidin (PharMingen, #13047E).). After the plate was washed with 0.1% Tween 20/PBS, an HRP-luminescent substrate was added to each well and light intensity measured using a LJL Analyst plate luminometer. Sets of control wells contained a serial dilution of Cyclosporin A (Sigma) starting at a final concentration of 0.5 μg/ml.
# The combination of 0.052 μM tretinoin and 0.004 μM alprostadil was able to suppress TNFα secretion by 42%. […] Maximal tretinoin efficacy (−36% TNFα suppression) is therefore maintained while reducing the concentration of total drug species by greater than 90% (0.052 μM tretionoin+0.004 μM alprostadil compared to 0.832 μM tretinoin alone).
# [2] = tested on: TNFα secretion from stimulated white blood cells; experiment: Secondary screen, TNFα ELISA, white blood cells stimulated using 1 μg/ml LPS; assay type: cell-based, human
# Protocol: as §1
# This dilution plate was then mixed and a 10 μl aliquot transferred to the final assay plate, which had been pre-filled with 40 μl/well RPM media containing the appropriate stimulant to activate TNFα secretion (see below).
# as §2
# In this experiment, white blood cells were stimulated using 1 μg/ml LPS.
# [3] = Homo sapiens, Alprostadil 0.004 μM alone
# [4] = Homo sapiens, Alprostadil 0.018 μM alone
# [5] = Homo sapiens, Alprostadil 0.071 μM alone
# [6] = Homo sapiens, Tretinoin 0.052 μM alone
# [7] = Homo sapiens, Tretinoin 0.208 μM alone
# [8] = Homo sapiens, Tretinoin 0.832 μM alone
# [9] = Homo sapiens, Tretinoin 3.329 μM alone
# [10] = Homo sapiens, Tretinoin 13.316 μM alone
smiles,measurement,setting,value
"CCCCC[C@H](O)/C=C/[C@H]1[C@H](O)CC(=O)[C@@H]1CCCCCCC(=O)O [Alprostadil, (11α, 13E, 15S)-11,15-dihydroxy-9-oxoprost-13-enoic acid]",inhibition at 0.004 µM,[1]; [3],33.3%
same,inhibition at 0.018 µM,[1]; [4],39.8%
same,inhibition at 0.071 µM,[1]; [5],50.5%
same,inhibition at 0.283 µM,"[1]; Homo sapiens, Alprostadil 0.283 μM alone",53.8%
same,inhibition at 1.13 µM,"[1]; Homo sapiens, Alprostadil 1.130 μM alone",56.8%
same,inhibition of TNFα secretion,[1]; alprostadil alone,57%
same,inhibition at 0.004 µM,[2]; [3],44.6%
same,inhibition at 0.009 µM,"[2]; Homo sapiens, Alprostadil 0.009 μM alone",49.2%
same,inhibition at 0.018 µM,[2]; [4],54.8%
same,inhibition at 0.035 µM,"[2]; Homo sapiens, Alprostadil 0.035 μM alone",57.3%
same,inhibition at 0.071 µM,[2]; [5],71.5%
same,inhibition at 0.141 µM,"[2]; Homo sapiens, Alprostadil 0.141 μM alone",74.3%
same,inhibition at 0.282 µM,"[2]; Homo sapiens, Alprostadil 0.282 μM alone",75.7%
same,inhibition at 0.564 µM,"[2]; Homo sapiens, Alprostadil 0.564 μM alone",79.5%
same,inhibition at 1.128 µM,"[2]; Homo sapiens, Alprostadil 1.128 μM alone",81.6%
same,alprostadil concentration needed alone to attain 64.0% TNFα inhibition,[2]; alprostadil alone,≥ 0.035 µM
same,maximal TNFα-inhibitory effect,"[2]; alprostadil alone, concentration of at least 1.128 μM",82%
"CC1=C(/C=C/C(C)=C/C=C/C(C)=C/C(=O)O)C(C)(C)CCC1 [Tretinoin, 3,7-dimethyl-9-(2,6,6-trimethylcyclohex-1-enyl)nona-2,4,6,8-all-trans-tetraenoic acid]",inhibition at 0.052 µM,[1]; [6],13.8%
same,inhibition at 0.208 µM,[1]; [7],28.7%
same,inhibition at 0.832 µM,[1]; [8],34.5%
same,inhibition at 3.329 µM,[1]; [9],34.1%
same,inhibition at 13.316 µM,[1]; [10],36.2%
same,maximal inhibition of TNFα secretion,"[1]; tretinoin alone, concentrations ranging from 0.83-13.3 μM",36%
same,inhibition at 0.052 µM,[2]; [6],32.7%
same,inhibition at 0.104 µM,"[2]; Homo sapiens, Tretinoin 0.104 μM alone",35.1%
same,inhibition at 0.208 µM,[2]; [7],32.5%
same,inhibition at 0.416 µM,"[2]; Homo sapiens, Tretinoin 0.416 μM alone",32.7%
same,inhibition at 0.832 µM,[2]; [8],38.4%
same,inhibition at 1.664 µM,"[2]; Homo sapiens, Tretinoin 1.664 μM alone",37.6%
same,inhibition at 3.329 µM,[2]; [9],44.1%
same,inhibition at 6.658 µM,"[2]; Homo sapiens, Tretinoin 6.658 μM alone",48.7%
same,inhibition at 13.316 µM,[2]; [10],52.1%
same,TNFα inhibition,"[2]; tretinoin alone, concentrations from 6.7-13.3 μM",approximately 50%
